The source of these data is PubChem BioAssay (NCI).

Holding throughout (assay): NCI tumour cell line growth inhibition, 48 h
Experiment [1] concerns CAKI-1 renal.
Experiment [2] relates to MALME-3M melanoma.
The subject of experiment [3] is ACHN renal.
The test system of experiment [4] is SW-620 colon.
For experiment [5], the system named is TK-10 renal.
Experiment [6] deals with 786-0 renal.
The test system of experiment [7] is SR leukemia.
For experiment [8], the system named is LOX IMVI melanoma.
Experiment [9] relates to HCT-15 colon.
Experiment [10] deals with NCI-H522 lung.

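Interpolation was linear, between the two tested concentrations surrounding the appropriate level; five concentrations were tested over 48 hours in 96-well plates. At the GI50, growth is halved. TGI marks complete inhibition of growth.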

Turning to `O=C(c1ccccc1)n1[nH]c(=O)n(-c2ccc(Cl)cc2)c1=O`, the TGI in experiment [1], in [2], in experiment [3], in experiment [4], in [5] and in experiment [6] was over 100 µM in each case. Moreover, the TGI in experiment [7], in experiment [8] and in [9] was over 100 µM each time.

For the compound `N#CI1OC(C(F)(F)F)(C(F)(F)F)c2ccccc21`, the TGI came to 28 µM in experiment [1]; 36.9 µM in experiment [3]; 39.1 µM in experiment [5]; 27.3 µM in experiment [10]; 27.2 µM in experiment [6]; 43.3 µM in experiment [8]. This compound also displayed a TGI in experiment [9] of 32.6 µM.

Consider `CC(C)=CCC/C(C)=C/CC/C(C)=C/CSc1ccc(Cl)cc1C(=O)O`, for which the TGI in experiment [1] was 43.5 µM; in [2], 38.4 µM; in experiment [3] it was 35.9 µM; in experiment [4], 46.9 µM; in experiment [5], 37.6 µM; in [6], 30.8 µM. Also, the TGI in experiment [8] came out at 32 µM; in experiment [9], 34.7 µM.

Regarding `O=[N+]([O-])c1ccc(Cl)cc1N/N=C/c1cccs1`, the TGI in experiment [1], in experiment [3], in [4], in [5], in [10] and in experiment [6] was over 100 µM in each case. Also, the TGI in [7] and in experiment [9] was over 100 µM throughout.

In the case of `CC12CCC(C1)C(C)(C)C2OC(=O)c1ccccc1C(=O)O` (stereo not drawn), the TGI in [1], in experiment [2], in experiment [3], in experiment [4], in experiment [5] and in experiment [10] was over 100 µM in each case. Besides, the TGI in [6], in [8] and in experiment [9] was over 100 µM throughout.

Regarding `Cc1ccc(Nc2ccc(Nc3ccc(C)cc3S(=O)(=O)O)c3c2C(=O)c2ccccc2C3=O)c(S(=O)(=O)O)c1`, the TGI in experiment [1], in [2], in [3], in experiment [4], in experiment [5] and in experiment [10] was over 100 µM in each case. Also, the TGI in experiment [6], in experiment [7] and in [9] was over 100 µM throughout.

For `CCCC1C(C#N)(C#N)C(C#N)=C(N)C1(C)C(C)=O` (stereo not drawn), the TGI in [1] is 21.6 µM; in experiment [2] it was over 100 µM; in experiment [3] it was over 100 µM; in [4] it was over 100 µM; in [5] it was over 100 µM; in experiment [10] it was over 100 µM. Besides, the TGI in [6], in experiment [8] and in [9] was over 100 µM each time.

Consider `Cc1oc2c(C)c3oc(=O)cc(C)c3cc2c1CN`, for which the TGI in experiment [2] is 86 µM; in [3], over 100 µM; in experiment [4] it was over 100 µM; in [5], 86.9 µM; in experiment [10], over 100 µM; in experiment [6], over 100 µM. Moreover, the TGI in experiment [8] is 41.9 µM; in [9], over 100 µM.

On to `CC(CN(C)C)C(=O)/C=C/c1ccc(Cl)c(Cl)c1` (stereo not drawn), for which the TGI was found to be 4.42 µM in experiment [1]; 3.92 µM in experiment [3]; 8.42 µM in experiment [4]; 4.63 µM in experiment [5]; 3.24 µM in [10]; 2.01 µM in experiment [6]. In addition, the TGI in experiment [7] was determined as 6.25 µM; in experiment [8] it was 2.99 µM.

With `COc1ccc(/C=C/C(c2cc(OC)c(OC)c(OC)c2)n2cncn2)cc1O` (stereo not drawn), the GI50 in experiment [1] was 2.83 µM; in experiment [3], 0.0578 µM; in experiment [4], 0.0394 µM; in [5], 21.2 µM; in experiment [7] it was 0.0248 µM; in experiment [8] it was 0.0511 µM. Moreover, the GI50 in [9] is 0.0508 µM. Further, the TGI in [1], in experiment [3], in experiment [4], in experiment [5], in experiment [7] and in experiment [8] was over 100 µM in each case. Moreover, the TGI in experiment [9] was over 100 µM.

In the case of `Cc1[nH]c(=O)[nH]c(=O)c1C(=O)N(CCO)Cc1ccccc1`, the TGI in [2], in [3], in experiment [4], in [5], in experiment [10] and in experiment [7] was over 100 µM each time. The TGI in [8] and in experiment [9] was over 100 µM each time.

For the compound `COc1cnnc2c(C)c(-c3ccccc3)nn12`, the TGI in [1], in [2], in [3], in [4], in [5] and in experiment [10] was over 100 µM in each case. Besides, the TGI in experiment [6], in [8] and in experiment [9] was over 100 µM each time.

As for `CCCN1C(=O)/C(=C(/O)C(=O)OCC)C(c2ccc(OC)c(OC)c2)C1=O` (stereo not drawn), the TGI in experiment [1], in experiment [2], in experiment [4], in experiment [10], in [8] and in [9] was over 100 µM each time.

Take `Cc1nn(C(=O)c2ccc(Cl)cc2)c2c1C(c1ccco1)SC(N)=N2` (stereo not drawn): the TGI in experiment [1], in [3], in experiment [4], in experiment [5], in experiment [10] and in [6] was over 10 µM each time. In addition, the TGI in experiment [7], in [8] and in experiment [9] was over 10 µM throughout.

Regarding `COC(=O)C(N)CCCC(N)C(=O)NC(C)C(=O)NC(CCC(=O)NCCCNc1ccc([N+](=O)[O-])c2[nH]c3ccccc3c(=O)c12)C(N)=O` (stereo not drawn), the TGI in [1] was 19.8 µM; in experiment [3], 16.2 µM; in experiment [4], 14.7 µM; in experiment [5], 23.2 µM; in experiment [6], 16.6 µM; in experiment [8], 13 µM. The compound further registered a TGI in experiment [9] of 15 µM.

For the compound `CC(CC(C)(C)[N+](C)(C)C)[N+](C)(C)C` (stereo not drawn), the TGI in experiment [1], in experiment [3], in experiment [4], in [5], in experiment [10] and in experiment [6] was over 100 µM in each case. For the same compound, the TGI in experiment [7] and in experiment [9] was over 100 µM in each case.

Regarding `CCOC(=O)/C=C1/Nc2cc(F)c(F)cc2NC1=O`, the TGI in [1], in experiment [2], in [3], in experiment [4], in [5] and in [6] was over 100 µM in each case. For the same compound, the TGI in experiment [8] and in [9] was over 100 µM each time.

`C=C(COC(=O)C(C)C)[C@H]1Oc2ccc(C(C)=O)cc2[C@@H]1OC(=O)C(C)C`: the TGI in [1], in experiment [2], in experiment [3], in [4], in experiment [5] and in experiment [6] was over 100 µM each time. Moreover, the TGI in experiment [7], in experiment [8] and in [9] was over 100 µM each time.

For `O=[N+]([O-])c1cc(Cl)ccc1S(=O)(=O)c1cc(Cl)cc2c1NCCC2`, the TGI in experiment [1], in experiment [2], in experiment [3], in experiment [4], in experiment [5] and in [6] was over 100 µM throughout. Also, the TGI in experiment [7], in [8] and in experiment [9] was over 100 µM in each case.

For `CCCCNCC(O)c1cc(-c2ccc(C(F)(F)F)cc2)nc(-c2ccc(C(F)(F)F)cc2)c1` (stereo not drawn), the GI50 was 1.71 µM in experiment [1], 1.26 µM in experiment [4], 2.16 µM in [5] and 1.8 µM in [10]. Also, the TGI in experiment [1] worked out at 3.41 µM; in experiment [4], 2.96 µM; in experiment [5], 3.83 µM; in [10], 3.53 µM.

For `C/C(=C/c1c(C)[nH]c(=O)[nH]c1=O)C(=O)O`, the TGI in [1], in [2], in experiment [4], in [10], in experiment [8] and in experiment [9] was over 1380 µM throughout.

`O=C1/C(=C2\SCC(=O)N2c2ccccc2)SC(=S)N1c1ccccc1`: the TGI in experiment [1] is 57.1 µM; in experiment [2] it was over 100 µM; in experiment [3], 97.7 µM; in [4] it was over 100 µM; in experiment [5] it was over 100 µM; in experiment [6], over 100 µM. For the same compound, the TGI is 29.6 µM in experiment [7], over 100 µM in experiment [8] and over 100 µM in experiment [9].

Consider `C1=C[C@]2(CCC13OCCO3)COc1ccccc12`, for which the TGI in [1], in [3], in experiment [4], in experiment [5], in experiment [6] and in experiment [7] was over 100 µM throughout. Besides, the TGI in experiment [8] is 59 µM; in [9], over 100 µM.

Consider `CC1CN=C(N(C)C(=O)Nc2ccc(Cl)c(Cl)c2)S1` (stereo not drawn), for which the TGI in experiment [1] is 61.8 µM; in experiment [2] it was over 100 µM; in [3], over 100 µM; in experiment [4], over 100 µM; in [5] it was 92.5 µM; in [6], over 100 µM. Also, the values for the TGI in experiment [7], in experiment [8] and in [9] were over 100 µM, 91.4 µM and 91.5 µM, respectively.

`CC(C)(Oc1ccc(C(=O)c2ccc(Cl)cc2)cc1Cl)C(=O)N1CCN(c2ccccc2)CC1`: the TGI in experiment [2], in experiment [4], in [5], in experiment [10], in experiment [6] and in experiment [7] was over 100 µM in each case. In addition, the TGI in experiment [8] and in experiment [9] was over 100 µM in each case.

`COc1cc(-c2coc3c(OC)c(OC4OC(COC5OC(C)C(O)C(O)C5O)C(O)C(O)C4O)c(OC)c(O)c3c2=O)cc(C)c1O` (stereo not drawn): the TGI was 38.9 µM in experiment [1]; 33.9 µM in experiment [2]; 52.9 µM in [3]; 30.9 µM in experiment [4]; over 100 µM in experiment [5]; 34.7 µM in experiment [10]. Also, the TGI in [8] was determined as 45.3 µM; in experiment [9], 40.9 µM.

As to `Cc1csc2n(C)c(=O)c3ccccc3[n+]12`, the TGI in [1], in experiment [3], in [4], in [5], in experiment [10] and in experiment [6] was over 100 µM throughout. For the same compound, the TGI in experiment [7], in experiment [8] and in experiment [9] was over 100 µM in each case.

As for `COc1ccc(N2C(=O)C3c4[nH]c5ccccc5c4C4CCC(C(C)(C)C)CC4C3C2=O)cc1OC` (stereo not drawn), the TGI is over 100 µM in experiment [2]; 46.6 µM in [3]; 72 µM in [4]; 33.4 µM in [10]; 33.9 µM in [6]; 39.9 µM in experiment [7]. The TGI in experiment [9] was over 100 µM.

As to `Oc1ccccc1C=Nc1ccccc1N=Cc1ccccc1O`, the TGI in experiment [2] was over 100 µM; in experiment [3] it was over 100 µM; in experiment [4], over 100 µM; in experiment [5], over 100 µM; in experiment [10], 45.7 µM; in [6], over 100 µM. Also, the TGI in experiment [7], in experiment [8] and in [9] was over 100 µM throughout.

`CCc1cc2c(oc3c4ccccc4ccc23)c(=O)[nH]1`: the TGI in [3], in experiment [4], in [5], in experiment [10], in experiment [6] and in [7] was over 10 µM in each case. Besides, the TGI in experiment [8] is over 10 µM.

Take `c1ccc2nn(C3CCCCO3)nc2c1` (stereo not drawn): the TGI in [1], in [2], in experiment [3], in [5], in [10] and in [6] was over 100 µM throughout. Also, the TGI in [7] and in [9] was over 100 µM each time.
